“And” between values parts separate entries of the source, which are not always exact repeats. Equal entries are not always repeated.
How the values were obtained:
[1] = target: T1, hTLR8 (Homo sapiens, UniProt Q9NR97); assay: Toll-like receptor binding/stimulation, HEK293 cells expressing hTLR8; format: cell-based; settings: CL075 1 μg/mL
T1 construct: expressed in transfected cells; host or cells: HEK293 (293/hTLR8)
T1 sequence (Q9NR97 27-1041): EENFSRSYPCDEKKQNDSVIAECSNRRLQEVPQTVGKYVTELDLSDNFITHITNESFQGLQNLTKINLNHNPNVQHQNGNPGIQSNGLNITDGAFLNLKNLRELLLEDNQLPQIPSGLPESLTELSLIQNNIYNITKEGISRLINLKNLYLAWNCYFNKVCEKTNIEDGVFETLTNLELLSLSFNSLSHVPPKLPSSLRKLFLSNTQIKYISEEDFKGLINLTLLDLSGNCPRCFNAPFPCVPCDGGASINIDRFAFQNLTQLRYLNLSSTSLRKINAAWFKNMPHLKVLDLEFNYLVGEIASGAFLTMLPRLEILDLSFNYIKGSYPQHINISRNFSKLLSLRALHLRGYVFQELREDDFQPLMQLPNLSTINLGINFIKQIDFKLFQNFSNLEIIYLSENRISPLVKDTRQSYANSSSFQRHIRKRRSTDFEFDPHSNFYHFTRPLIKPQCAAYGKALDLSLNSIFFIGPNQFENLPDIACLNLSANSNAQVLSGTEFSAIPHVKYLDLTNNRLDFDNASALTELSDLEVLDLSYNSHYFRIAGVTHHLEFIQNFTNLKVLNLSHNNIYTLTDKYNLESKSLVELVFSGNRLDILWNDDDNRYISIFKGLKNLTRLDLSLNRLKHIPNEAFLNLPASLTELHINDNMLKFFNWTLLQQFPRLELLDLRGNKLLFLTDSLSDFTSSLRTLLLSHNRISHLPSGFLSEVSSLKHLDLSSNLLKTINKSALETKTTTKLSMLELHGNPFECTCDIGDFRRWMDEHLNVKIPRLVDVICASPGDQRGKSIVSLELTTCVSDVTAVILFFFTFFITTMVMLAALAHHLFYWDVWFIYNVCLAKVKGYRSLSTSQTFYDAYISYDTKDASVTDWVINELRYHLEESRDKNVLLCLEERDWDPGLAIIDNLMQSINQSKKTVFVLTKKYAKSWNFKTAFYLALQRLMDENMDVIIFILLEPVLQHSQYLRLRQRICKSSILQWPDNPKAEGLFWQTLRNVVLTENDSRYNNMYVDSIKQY
Protocol: (§1) Samples in three concentrations (0.5 μg/mL, 5 μg/mL, and 50 μg/mL) of the biological response modifier (proteic aggregate of ammonium and magnesium phospholinoleate-palmitoleate anhydride) were dissolved in dimethylsulfoxide (DMSO at 1%) at the concentration of 1% and incubated with 293 TLR cells (HEK293 cells) in microplates, in duplicate, for 20 hours.
(§2) Standard compounds, that is, ligands known for TLR 3 to TLR9 in predetermined concentrations were also incubated in microplates with 293 TLR cells (HEK293 cells) for 20 hours.
(§3) Subsequently, absorbance readings were taken of the microplates […] at 650 nm using a Beckman Coulter AD 340C Absorbance Detector device with three concentrations of the biological response modifier (proteic aggregate of ammonium and magnesium phospholinoleate-palmitoleate anhydride) incubated with the HEK293 cells and readings were also taken of the microplates incubated with the same cells and the control substances, for comparative assessment of the percentage of binding of the aforementioned compounds to toll-like receptors expressed in HEK293 cells.

[2] = target: T2, hTLR7 (Homo sapiens, UniProt Q9NYK1); assay: Toll-like receptor binding/stimulation, HEK293 cells expressing hTLR7; format: cell-based; settings: CL097 1 μg/mL
T2 construct: expressed in transfected cells; host or cells: HEK293 (293/hTLR7)
T2 sequence (Q9NYK1 27-1049): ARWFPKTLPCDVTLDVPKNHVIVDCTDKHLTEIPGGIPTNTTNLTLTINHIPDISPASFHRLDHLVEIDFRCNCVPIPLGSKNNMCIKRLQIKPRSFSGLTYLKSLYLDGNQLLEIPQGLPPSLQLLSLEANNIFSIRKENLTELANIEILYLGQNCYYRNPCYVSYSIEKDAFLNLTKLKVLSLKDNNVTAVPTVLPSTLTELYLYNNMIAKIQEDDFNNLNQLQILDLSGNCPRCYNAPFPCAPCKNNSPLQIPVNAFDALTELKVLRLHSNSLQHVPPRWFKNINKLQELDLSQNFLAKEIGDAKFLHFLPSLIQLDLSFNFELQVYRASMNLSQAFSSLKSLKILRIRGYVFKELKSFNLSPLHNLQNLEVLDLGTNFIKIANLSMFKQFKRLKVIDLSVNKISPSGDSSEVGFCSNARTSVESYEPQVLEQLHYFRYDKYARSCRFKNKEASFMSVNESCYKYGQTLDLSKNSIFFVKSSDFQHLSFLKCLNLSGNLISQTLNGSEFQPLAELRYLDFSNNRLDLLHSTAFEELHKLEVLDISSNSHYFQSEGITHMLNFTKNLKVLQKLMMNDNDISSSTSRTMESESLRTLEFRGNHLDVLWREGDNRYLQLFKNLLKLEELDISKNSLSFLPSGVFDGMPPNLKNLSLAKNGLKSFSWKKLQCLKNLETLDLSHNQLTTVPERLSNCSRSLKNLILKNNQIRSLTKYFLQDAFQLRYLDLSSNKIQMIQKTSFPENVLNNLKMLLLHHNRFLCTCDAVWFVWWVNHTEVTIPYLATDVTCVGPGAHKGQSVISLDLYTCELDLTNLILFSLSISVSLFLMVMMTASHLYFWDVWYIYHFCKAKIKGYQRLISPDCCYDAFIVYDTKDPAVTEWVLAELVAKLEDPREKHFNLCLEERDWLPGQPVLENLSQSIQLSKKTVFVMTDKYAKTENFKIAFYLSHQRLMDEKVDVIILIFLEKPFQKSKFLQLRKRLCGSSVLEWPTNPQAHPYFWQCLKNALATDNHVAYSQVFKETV
Protocol: as §1, §2, §3

[3] = target: T3, hTLR9 (Homo sapiens, UniProt Q9NR96); assay: Toll-like receptor binding/stimulation, HEK293 cells expressing hTLR9; format: cell-based; settings: CpG ODN 2006 1 μg/mL
T3 construct: expressed in transfected cells; host or cells: HEK293 (293/hTLR9)
T3 sequence (Q9NR96 26-1032): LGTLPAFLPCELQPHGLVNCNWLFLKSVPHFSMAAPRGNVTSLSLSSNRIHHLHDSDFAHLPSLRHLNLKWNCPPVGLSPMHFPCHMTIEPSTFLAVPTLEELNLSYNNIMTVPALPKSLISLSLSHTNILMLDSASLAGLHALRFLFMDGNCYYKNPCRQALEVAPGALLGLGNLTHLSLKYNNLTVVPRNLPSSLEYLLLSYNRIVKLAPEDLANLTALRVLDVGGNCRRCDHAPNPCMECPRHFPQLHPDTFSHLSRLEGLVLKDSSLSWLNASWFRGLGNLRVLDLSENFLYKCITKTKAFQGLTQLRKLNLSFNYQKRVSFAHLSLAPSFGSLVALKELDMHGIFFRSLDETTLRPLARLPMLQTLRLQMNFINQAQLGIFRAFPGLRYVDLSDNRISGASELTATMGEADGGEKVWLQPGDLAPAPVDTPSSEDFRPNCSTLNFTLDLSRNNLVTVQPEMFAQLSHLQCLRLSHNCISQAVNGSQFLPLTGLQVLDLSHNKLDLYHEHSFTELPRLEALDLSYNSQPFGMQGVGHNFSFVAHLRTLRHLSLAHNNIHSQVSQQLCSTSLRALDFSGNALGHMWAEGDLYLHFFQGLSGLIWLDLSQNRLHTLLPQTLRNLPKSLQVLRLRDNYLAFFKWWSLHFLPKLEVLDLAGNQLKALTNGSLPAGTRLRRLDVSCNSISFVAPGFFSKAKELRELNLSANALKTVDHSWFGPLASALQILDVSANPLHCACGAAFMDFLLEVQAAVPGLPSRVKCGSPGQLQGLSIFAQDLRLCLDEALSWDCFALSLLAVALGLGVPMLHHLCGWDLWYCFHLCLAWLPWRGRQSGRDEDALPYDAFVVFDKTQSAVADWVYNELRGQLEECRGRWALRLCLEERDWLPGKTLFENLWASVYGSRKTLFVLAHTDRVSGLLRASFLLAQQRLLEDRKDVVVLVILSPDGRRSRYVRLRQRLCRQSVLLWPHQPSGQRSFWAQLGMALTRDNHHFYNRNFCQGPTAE
Protocol: as §1, §2, §3

[4] = target: T4, hTLR3 (Homo sapiens, UniProt O15455); assay: Toll-like receptor binding/stimulation, HEK293 cells expressing hTLR3; format: cell-based; settings: Poly (I: C) 1 μg/mL
T4 construct: expressed in transfected cells; host or cells: HEK293 (293/hTLR3)
T4 sequence (O15455 24-904): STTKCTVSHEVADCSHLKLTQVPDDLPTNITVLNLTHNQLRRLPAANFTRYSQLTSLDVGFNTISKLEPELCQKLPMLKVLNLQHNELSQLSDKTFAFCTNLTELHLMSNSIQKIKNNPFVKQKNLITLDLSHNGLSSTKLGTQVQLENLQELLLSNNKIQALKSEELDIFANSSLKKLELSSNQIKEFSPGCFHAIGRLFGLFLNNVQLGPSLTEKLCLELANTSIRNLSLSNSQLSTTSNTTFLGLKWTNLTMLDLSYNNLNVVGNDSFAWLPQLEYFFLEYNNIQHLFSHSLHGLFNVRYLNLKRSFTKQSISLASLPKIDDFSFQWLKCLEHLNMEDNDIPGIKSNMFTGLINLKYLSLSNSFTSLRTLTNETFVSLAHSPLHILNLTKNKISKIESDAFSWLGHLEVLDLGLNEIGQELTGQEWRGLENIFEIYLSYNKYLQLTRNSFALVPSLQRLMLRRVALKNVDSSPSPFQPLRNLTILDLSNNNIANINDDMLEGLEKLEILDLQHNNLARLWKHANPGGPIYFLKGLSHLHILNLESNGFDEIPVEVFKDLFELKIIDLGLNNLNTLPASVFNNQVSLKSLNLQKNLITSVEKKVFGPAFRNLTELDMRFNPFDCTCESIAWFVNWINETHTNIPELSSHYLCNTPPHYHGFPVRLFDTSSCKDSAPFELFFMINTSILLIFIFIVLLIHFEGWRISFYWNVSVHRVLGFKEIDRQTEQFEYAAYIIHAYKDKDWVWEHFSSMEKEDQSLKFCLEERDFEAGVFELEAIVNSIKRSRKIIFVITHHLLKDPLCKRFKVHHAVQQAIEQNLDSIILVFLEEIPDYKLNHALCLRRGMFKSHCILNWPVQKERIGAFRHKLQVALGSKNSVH
Protocol: as §1, §2, §3

[5] = tested on: NF-κB Control cells; assay: Toll-like receptor screening, NF-κB control cells; format: cell-based; settings: TNFα 100 ng/ml
Protocol: as §1, §2, §3

[6] = tested on: metastatic melanoma; settings: high doses of interferon-alpha alone; cited from earlier work
[7] = target: hTLR5 (Homo sapiens, UniProt O60602); assay: Toll-like receptor binding/stimulation, HEK293 cells expressing hTLR5; format: cell-based; settings: S. typhimurium flagellin 100 ng/ml
Chain of hTLR5 (O60602 21-858): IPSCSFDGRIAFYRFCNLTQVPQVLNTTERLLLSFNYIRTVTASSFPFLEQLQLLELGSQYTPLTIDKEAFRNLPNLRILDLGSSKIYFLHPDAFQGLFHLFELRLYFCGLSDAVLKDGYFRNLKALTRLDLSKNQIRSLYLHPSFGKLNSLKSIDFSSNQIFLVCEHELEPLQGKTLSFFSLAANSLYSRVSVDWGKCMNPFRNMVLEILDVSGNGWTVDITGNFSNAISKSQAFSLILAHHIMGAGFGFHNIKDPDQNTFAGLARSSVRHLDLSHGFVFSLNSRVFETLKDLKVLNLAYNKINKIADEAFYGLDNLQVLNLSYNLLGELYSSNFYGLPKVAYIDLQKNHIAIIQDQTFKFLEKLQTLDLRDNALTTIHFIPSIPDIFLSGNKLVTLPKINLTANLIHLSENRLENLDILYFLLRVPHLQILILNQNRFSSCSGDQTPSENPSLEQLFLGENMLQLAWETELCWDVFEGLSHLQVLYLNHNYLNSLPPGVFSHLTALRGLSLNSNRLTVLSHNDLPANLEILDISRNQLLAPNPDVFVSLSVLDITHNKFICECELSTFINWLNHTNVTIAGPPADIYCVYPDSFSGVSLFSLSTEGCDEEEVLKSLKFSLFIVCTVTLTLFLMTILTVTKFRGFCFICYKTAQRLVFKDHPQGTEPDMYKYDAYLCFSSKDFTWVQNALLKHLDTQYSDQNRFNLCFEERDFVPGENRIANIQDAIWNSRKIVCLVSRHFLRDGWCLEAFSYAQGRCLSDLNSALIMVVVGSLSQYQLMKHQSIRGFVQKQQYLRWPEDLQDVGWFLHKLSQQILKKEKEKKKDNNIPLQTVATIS
Protocol: Subsequently, absorbance readings were taken of the microplates by fluorescence at 650 nm using a Beckman Coulter AD 340C Absorbance Detector device with three concentrations of the biological response modifier (proteic aggregate of ammonium and magnesium phospholinoleate-palmitoleate anhydride) incubated with the HEK293 cells and readings were also taken of the microplates incubated with the same cells and the control substances, for comparative assessment of the percentage of binding of the aforementioned compounds to toll-like receptors expressed in HEK293 cells.

In the case of `CCCc1nc2c(N)nc3ccccc3c2s1` [CL075], the “OD (650 nm), 293/hTLR8 cells, Controls+” value ([1]; 20 h, screening 1 and 2) is reported as 3.313 OD (650 nm) and 3.338 OD (650 nm) and the “% ligands (% bindings), 293/hTLR8, Controls” value ([1]; reference) is reported as 100%.

In the case of `CCOCc1nc2c([nH]1)c(N)nc1ccccc12` [CL097], the “OD (650 nm), 293/hTLR7 cells, Controls+” value ([2]; 20 h, screening 1 and 2) is reported as 3.222 OD (650 nm) and 3.359 OD (650 nm) and the “% ligands (% bindings), 293/hTLR7, Controls” value ([2]; reference) is reported as 100%.

For CpG ODN 2006, the “OD (650 nm), 293/hTLR9 cells, Controls+” value ([3]; 20 h, screening 1 and 2) was 2.582 OD (650 nm) and 2.519 OD (650 nm) and the “% ligands (% bindings), 293/hTLR9, Controls” value ([3]; reference) was 100%.

For Poly (I: C), the “OD (650 nm), 293/hTLR3 cells, Controls+” value ([4]; 20 h, screening 1 and 2) was 3.287 OD (650 nm) and 3.440 OD (650 nm) and the “% ligands (% bindings), 293/hTLR3, Controls” value ([4]; reference) was 100%.

For TNFα, the “OD (650 nm), Cells NF-κB Controls, Controls+” value ([5]; 20 h, screening 1 and 2) was 2.221 OD (650 nm) and 2.042 OD (650 nm) and the “% ligands (% bindings), Cell NF-κB Controls, Controls” value ([5]; reference) was 100%.

In the case of interferon-alpha, the response rate [6] is given as “around 20%”.

B1: S. typhimurium flagellin: TLR5 control ligand (protein, UniProt P06179 2-495, looked up)
Flagellin: AQVINTNSLSLLTQNNLNKSQSALGTAIERLSSGLRINSAKDDAAGQAIANRFTANIKGLTQASRNANDGISIAQTTEGALNEINNNLQRVRELAVQSANSTNSQSDLDSIQAEITQRLNEIDRVSGQTQFNGVKVLAQDNTLTIQVGANDGETIDIDLKQINSQTLGLDTLNVQQKYKVSDTAATVTGYADTTIALDNSTFKASATGLGGTDQKIDGDLKFDDTTGKYYAKVTVTGGTGKDGYYEVSVDKTNGEVTLAGGATSPLTGGLPATATEDVKNVQVANADLTEAKAALTAAGVTGTASVVKMSYTDNNGKTIDGGLAVKVGDDYYSATQNKDGSISINTTKYTADDGTSKTALNKLGGADGKTEVVSIGGKTYAASKAEGHNFKAQPDLAEAAATTTENPLQKIDAALAQVDTLRSDLGAVQNRFNSAITNLGNTVNNLTSARSRIEDSDYATEVSNMSRAQILQQAGTSVLAQANQVPQNVLSLLR
In the case of B1, the “OD (650 nm), 293/hTLR5 cells, Controls+” value ([7]; 20 h, screening 1 and 2) is reported as 3.662 OD (650 nm) and 3.798 OD (650 nm) and the “% ligands (% bindings), 293/hTLR5, Controls” value ([7]; reference) is reported as 100%.

Reference: patent US9295682B2, “Adjuvant immunotherapy for the preventive, curative or palliative treatment of chronic systemic diseases such as cancer, of clinical manifestations associated with diseases like cachexia and correction of adverse effects of drugs such as immunosuppression, neutropenia and lymphopenia, comprising …” (priority 2009, dated 2016)
